Experimental data as given in patent US12428415B2, “Matriptase 2 inhibitors and uses thereof” (Disc Medicine, Inc., priority 2018, dated 2025).

Target: T1, Human Recombinant Matriptase 2 (Homo sapiens, UniProt Q8IU80)
T1 construct: purchased Enzo Life Sciences (an in-house preparation was also used) ALX-201-752-1
T1 sequence (Q8IU80 1-811): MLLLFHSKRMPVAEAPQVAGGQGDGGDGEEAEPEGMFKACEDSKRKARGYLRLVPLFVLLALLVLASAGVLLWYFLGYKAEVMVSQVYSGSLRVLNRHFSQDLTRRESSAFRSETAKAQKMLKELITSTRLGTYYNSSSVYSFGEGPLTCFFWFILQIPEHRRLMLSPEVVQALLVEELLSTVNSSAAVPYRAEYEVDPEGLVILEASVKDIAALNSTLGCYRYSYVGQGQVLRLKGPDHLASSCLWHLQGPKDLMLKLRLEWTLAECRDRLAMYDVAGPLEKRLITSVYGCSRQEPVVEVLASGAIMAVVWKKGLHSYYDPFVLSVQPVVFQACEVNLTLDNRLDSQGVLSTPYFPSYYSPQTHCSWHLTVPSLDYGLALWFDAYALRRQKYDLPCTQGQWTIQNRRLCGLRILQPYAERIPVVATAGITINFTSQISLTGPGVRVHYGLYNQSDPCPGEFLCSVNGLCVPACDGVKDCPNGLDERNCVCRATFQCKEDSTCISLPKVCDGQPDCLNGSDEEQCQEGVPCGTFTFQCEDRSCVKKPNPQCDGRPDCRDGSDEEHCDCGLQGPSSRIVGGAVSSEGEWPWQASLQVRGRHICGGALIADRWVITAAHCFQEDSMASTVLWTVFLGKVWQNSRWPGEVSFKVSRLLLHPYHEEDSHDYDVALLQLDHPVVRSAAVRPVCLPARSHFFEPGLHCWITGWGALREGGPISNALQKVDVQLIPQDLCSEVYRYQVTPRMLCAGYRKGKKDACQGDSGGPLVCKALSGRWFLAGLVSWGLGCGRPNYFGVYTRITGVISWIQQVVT
Experiment: Matriptase 2 fluorescence based inhibition assay, Method B (50 mM TRIS pH 7.5, 150 mM NaCl, 0.01% gelatin)
Format: biochemical
Conditions: 1 uM compound; Assay Used = B; read-out: Mar-2 % inhibition at 1 uM
Method: Test compounds were evaluated for their potential to inhibit Human Recombinant Matriptase 2 (in-house and commercial protein from Enzo Life Sciences—cat log -ALX-201-752-1) using fluorescence based assay. The concentration of Recombinant Matriptase 2 and the substrate used in the assay was: 7 nM (commercial) and 15 nM (Inhouse Matriptase 2) and 100 μM (Boc-Gln-Ala-Arg-7-amido-4-methyl coumarin hydrobromide—Cat log: B4153-Sigma and I-1550 from Bachem) respectively. The assay buffer used was 50 mM TRIS pH 7.5, 150 mM NaCl, 0.01% gelatin (G1393 Sigma). The assay was performed using 384 well black flat bottom plate from grenier (Cat log: 781076) at 25° C. The enzyme and compound preincubated for 30 mins, plate was read 60 mins after substrate addition at wavelength Ex: 360/Em:480 nm. The final assay volume of was 20 μl. Stock solution of compounds were initially prepared in DMSO and appropriate dilutions were made for screening and IC50 determination (final DMSO conc in the assay was 1%). All the measurements were carried out using the Spectramax M5, Molecular devices. The compounds were screened at 1 and 10 μM concentration and IC50 was determined for the interested compounds.
To determine IC50 values, dose response curves were generated by plotting percentage inhibition as a function of inhibitor concentration and the data was fitted to sigmoidal non-linear regression equation (variable slope) using Graph Pad prism software V7.

Compound	inhibition at 1 µM [%]
N=C(N)c1ccc2cc(C(=O)NCC3CCNCC3)n(-c3ccc4ccccc4c3)c2c1 [Compound I-490, 6-carbamimidoyl-1-(naphthalen-2-yl)-N-(piperidin-4-ylmethyl)-1H-indole-2-carboxamide]	50 to 75
CC(C)(C)OC(=O)NC(=N)c1ccc2cc(C(=O)NCC3CCN(C(=O)OC(C)(C)C)CC3)n(Cc3cccc4ccccc34)c2c1 [Compound I-492, tert-butyl4-((6-(N-(tert-butoxycarbonyl)carbamimidoyl)-1-(naphthalen-1-ylmethyl)-1H-indole-2-carboxamido)methyl)piperidine-1-carboxylate]	25 to 50
CC(C)(C)OC(=O)NC(=N)c1ccc2cc(C(=O)NC3CCC(NC(=O)OC(C)(C)C)CC3)n(Cc3cccc(Cl)c3Cl)c2c1 (centres unmarked) [Compound I-493]	0 to 25
CC(C)(C)OC(=O)NC(=N)c1ccc2cc(C(=O)N[C@H]3CC[C@H](NC(=O)OC(C)(C)C)CC3)n(Cc3ccnc4ccccc34)c2c1 [Compound I-494]	0 to 25
CC(C)(C)OC(=O)NC(=N)c1ccc2cc(C(=O)N[C@H]3CC[C@H](NC(=O)OC(C)(C)C)CC3)n(Cc3ccc(C(N)=O)cc3)c2c1 [Compound I-495]	0 to 25
N=C(N)c1ccc2cc(C(=O)NCC3CCNCC3)[nH]c2c1 [Compound I-496, 6-carbamimidoyl-N-(piperidin-4-ylmethyl)-1H-indole-2-carboxamide]	0 to 25
N=C(N)c1ccc2cc(C(=O)NCC3CCNCC3)n(Cc3cccc4ccccc34)c2c1 [Compound I-497, 6-carbamimidoyl-1-(naphthalen-1-ylmethyl)-N-(piperidin-4-ylmethyl)-1H-indole-2-carboxamide]	75 to 100
N=C(N)c1ccc2cc(C(=O)N[C@H]3CC[C@H](N)CC3)n(Cc3cc(Cl)cc(Cl)c3)c2c1 [Compound I-505]	25 to 50
N=C(N)c1ccc2c(C(=O)O)c(C(=O)N[C@H]3CC[C@H](N)CC3)n(Cc3cccc4ccccc34)c2c1 [Compound I-512, 2-(((1r,4r)-4-aminocyclohexyl)carbamoyl)-6-carbamimidoyl-1-(naphthalen-1-ylmethyl)-1H-indole-3-carboxylic Acid]	50 to 75
N=C(N)c1ccc2c(C(N)=O)c(C(=O)N[C@H]3CC[C@H](N)CC3)n(Cc3cccc4ccccc34)c2c1 [Compound I-513, N2-((1r,4r)-4-aminocyclohexyl)-6-carbamimidoyl-1-(naphthalen-1-ylmethyl)-1H-indole-2,3-dicarboxamide]	25 to 50
N=C(N)c1ccc2c(C=O)c(C(=O)N[C@H]3CC[C@H](N)CC3)n(Cc3cccc4ccccc34)c2c1 [Compound I-515, N-((1r,4r)-4-aminocyclohexyl)-6-carbamimidoyl-3-formyl-1-(naphthalen-1-ylmethyl)-1H-indole-2-carboxamide]	25 to 50
CC(C)(C)OC(=O)N[C@H]1CC[C@H](NC(=O)c2cn(Cc3cccc4ccccc34)c3cc(C(=N)N)ccc23)CC1 [Compound I-518, tert-butyl ((1r,4r)-4-(6-carbamimidoyl-1-(naphthalen-1-ylmethyl)-1H-indole-3-carboxamido)cyclohexyl) carbamate]	0 to 25
N=C(N)c1ccc2c(C(=O)N[C@H]3CC[C@H](N)CC3)cn(Cc3cccc4ccccc34)c2c1 [Compound I-519, N-((1r,4r)-4-aminocyclohexyl)-6-carbamimidoyl-1-(naphthalen-1-ylmethyl)-1H-indole-3-carboxamide]	0 to 25
N=C(N)c1ccc2c(C(=O)N[C@H]3CC[C@H](N)CC3)cn(Cc3ccc4ccccc4c3)c2c1 [Compound I-520]	0 to 25
N=C(N)c1ccc2ccn(Cc3cccc4ccccc34)c2c1 [Compound I-521, 1-(naphthalen-1-ylmethyl)-1H-indole-6-carboximidamide]	50 to 75
N=C(N)c1ccc2cc(S(=O)(=O)N(Cc3cccc4ccccc34)[C@H]3CC[C@H](N)CC3)n(Cc3cccc4ccccc34)c2c1 [Compound I-523]	0 to 25
CC(C)(C)OC(=O)N[C@H]1CC[C@H](c2nnc(-c3cc4ccc(C(=N)N)cc4n3Cc3cccc4ccccc34)o2)CC1 [Compound I-524, tert-butyl ((1r,4r)-4-(5-(6-carbamimidoyl-1-(naphthalen-1-ylmethyl)-1H-indol-2-yl)-1,3,4-oxadiazol-2-yl)cyclohexyl)carbamate]	25 to 50

Continued, values first:

inhibition at 1 µM [%]	Compound
50 to 75	N=C(N)c1ccc2cc(C(=O)N[C@H]3CC[C@@H](N)CC3)n(-c3ccc4ccccc4c3)c2c1 [Compound I-491]
25 to 50	N=C(N)c1ccc2cc(C(=O)N[C@H]3CC[C@H](N)CC3)n(Cc3cccc(Cl)c3Cl)c2c1 [Compound I-498]
50 to 75	N=C(N)c1ccc2cc(C(=O)N[C@H]3CC[C@H](N)CC3)n(Cc3ccnc4ccccc34)c2c1 [Compound I-499]
25 to 50	N=C(N)c1ccc2cc(C(=O)N[C@H]3CC[C@H](N)CC3)n(Cc3ccc(C(N)=O)cc3)c2c1 [Compound I-500]
0 to 25	N=C(N)c1ccc2cc(C(=O)N[C@H]3CC[C@H](N)CC3)n(CCS(=O)(=O)c3cccc4ccccc34)c2c1 [Compound I-501]
0 to 25	N=C(N)c1ccc2cc(C(=O)N[C@H]3CC[C@H](N)CC3)n(C(C(=O)O)c3cccc4ccccc34)c2c1 (some centres unmarked) [Compound I-502]
0 to 25	N=C(N)c1ccc2cc(C(=O)N[C@H]3CC[C@H](N)CC3)n(Cc3c(Cl)cccc3Cl)c2c1 [Compound I-503]
50 to 75	N=C(N)c1ccc2cc(C(=O)N[C@H]3CC[C@H](N)CC3)n(Cc3cccc4cnccc34)c2c1 [Compound I-504]
75 to 100	COc1ccc2c(Cn3c(C(=O)N[C@H]4CC[C@H](N)CC4)cc4ccc(C(=N)N)cc43)cccc2c1 [Compound I-506]
50 to 75	N=C(N)c1ccc2cc(C(=O)N[C@H]3CC[C@H](N)CC3)n(Cc3cncc4ccccc34)c2c1 [Compound I-507]
25 to 50	N=C(N)c1ccc2cc(C(=O)N[C@H]3CC[C@H](N)CC3)n(Cc3ccc(C(=O)O)c4ccccc34)c2c1 [Compound I-508]
50 to 75	N=C(N)c1ccc2cc(C(=O)N[C@H]3CC[C@H](N)CC3)n(Cc3ccc(C(N)=O)c4ccccc34)c2c1 [Compound I-509]
0 to 25	N=C(N)c1ccc2cc(C(=O)N[C@H]3CC[C@H](N)CC3)n(Cc3ccccc3-c3ccccc3)c2c1 [Compound I-510]
75 to 100	N=C(N)c1ccc2c(N)c(C(=O)N[C@H]3CC[C@H](N)CC3)n(Cc3cccc4ccccc34)c2c1 [Compound I-511, 3-amino-N-((1r,4r)-4-aminocyclohexyl)-6-carbamimidoyl-1-(naphthalen-1-ylmethyl)-1H-indole-2-carboxamide]
0 to 25	N#Cc1c(C(=O)N[C@H]2CC[C@H](N)CC2)n(Cc2cccc3ccccc23)c2cc(C(=N)N)ccc12 [Compound I-514, N-((1r,4r)-4-aminocyclohexyl)-6-carbamimidoyl-3-cyano-1-(naphthalen-1-ylmethyl)-1H-indole-2-carboxamide]
0 to 25	N=C(N)c1ccc2c(CO)c(C(=O)N[C@H]3CC[C@H](N)CC3)n(Cc3cccc4ccccc34)c2c1 [Compound I-516, N-((1r,4r)-4-aminocyclohexyl)-6-carbamimidoyl-3-(hydroxymethyl)-1-(naphthalen-1-ylmethyl)-1H-indole-2-carboxamide]
50 to 75	COCc1c(C(=O)N[C@H]2CC[C@H](N)CC2)n(Cc2cccc3ccccc23)c2cc(C(=N)N)ccc12 [Compound I-517, N-((1r,4r)-4-aminocyclohexyl)-6-carbamimidoyl-3-(methoxymethyl)-1-(naphthalen-1-ylmethyl)-1H-indole-2-carboxamide]
50 to 75	N=C(N)c1ccc2cc(S(=O)(=O)N[C@H]3CC[C@H](N)CC3)n(Cc3cccc4ccccc34)c2c1 [Compound I-522, 2-(N-((1r,4r)-4-aminocyclohexyl)sulfamoyl)-1-(naphthalen-1-ylmethyl)-1H-indole-6-carboximidamide]
